The results in this text go back to patent publication US20040147723A1, “Moringa seed proteins” (priority 2001, published 2004).

In brackets after ≈: the same amount, converted by molar mass. Where no end group is shown, it is not given here.

Assay [1] relates to L. pneumophilia serogroup 10. Description: MIC/MBC in 96-well micro plaque, BYEα medium. It is filed as cell-based. As to the method: (§1) Source of bacteria: The bacteria were isolated from drinking water of hospitals in Ticino, patient strains were obtained from the laboratory of microbiology at the CHUV.
(§2) MIC (minimal inhibitory concentration): MIC was measured with the help of a micro plaque with 96 wells, each containing 100 μl. The growth media were BYEα for L. pneumophilia and TSB for Mycobacterium and were containing a certain concentration of the peptide or antibiotic.
(§3) The media were then subjected to twofold dilutions (1 μl of bacterial suspension at a concentration of 5*10^8 CFU/ml diluted to 5*10^6 CFU/ml).
(§4) The L. pneumophilia culture was incubated at 35° C. and the results were read after 48 and 96 hours. The Mycobacterium culture was incubated at 30° C. for up to seven days.
(§5) MIC is the first well […].
(§6) MBC (minimal bactericidal concentration): 50 μl of the above suspensions were plated on solid media BCYEα or agar with blood. The L. pneumophilia culture was incubated at 35° C. for 48 hours and up to seven days for Mycobacterium.
(§7) The MBC value is the first plate without growth.

In assay [2] the test system is L. pneumophilia serogroup 1. The experiment in a line: MIC/MBC in 96-well micro plaque, BYEα medium. It is filed as cell-based. As to the method: as §1, §2, §3, §4, §5, §6, §7
The next assay has as its system E.coli ER2566. The settings on record: ER2566, 2 h.
Assay [3] in a line: Coagulation test (glass bead suspension sedimentation). The conditions noted are these: 20 μg/ml, glass beads. As to the method:
The test was carried out in a 2 ml volume in a spectrophotometer cell (104QS/HELLMA). To evaluate the coagulation activity, 100 mg/ml suspension of 3.5-7 μm diameter glass beads (Sheriglass 5000, Potters-Ballotini) were diluted in 50 mM phosphate buffer, pH=7.0, to mimic turbid water. Stirring was kept continuously at 800 rpm and OD 500 nm was measured each second (LabVIEW sfotware/National Instruments Corporation) in a Perkin-Elmer 552 spectrophotometer. After 5 minutes of continuous stirring the compound to be tested was added to a final concentration of 20 μg/ml, and stirring was continued for 15 minutes. Active compounds were diluted before the test either in phosphate buffer 10 mM, pH=7.0 (E proteins, PHYTOFLOC and bacterially produced Flo) or in distilled water (synthetic Flo).
To quantify the flocculation efficiency a linear regression was performed on time points corresponding to four minutes before the addition of the flocculating preparation (basal sedimentation) and four minutes after the addition of the flocculating preparation (coagulation-mediated sedimentation). The difference between the coagulation-mediated and basal sedimentation was calculated by subtraction in OD per minutes and multiplied by 1000 (Δ slope).
To assess particle coagulation properties of Flo, a suspension of glass beads under continuous mixing was used to mimic turbid water. […]

Protocol for E.coli ER2566: E.coli ER2566 was grown in LB medium to the exponential phase (A600=0.5-0.6) at 37° C. as above. The culture was centrifuged and resuspended in a same volume of 10 mM phosphate buffer pH=7.0, and E proteins, PHYTOFLOC (2 mg/ml), synthetic Flo (0.1 mg/ml to 2 mg/ml) carrier (buffer) or BSA (2 mg/ml) were added. After 2 hours incubation at 37° C., LB was added to the bacteria culture to obtain A600=0.1. All cultures were incubated at 37° C. at 200 rpm and the culture growth was followed through A600 measurements.
An exponential phase E.coli culture was centrifuged and incubated for 2 hrs at 37° C. in phosphate buffer alone (♦), or in phosphate buffer supplemented by the PHYTOFLOC extract (σ) or by synthetic Flo (ν) at a final concentration of 2 mg/ml. Bacteria were then diluted to A600=0.1 in LB growth medium and incubated at 37° C. under agitation. Optical density measurements were then recorded as indicated at 600 nm.
B. Exponentially growing E.coli culture was processed as indicated in (A) except that bacteria were incubated with different concentrations of synthetic Flo in mg/ml: 0 (ν), 0.1 (σ), 0.25 (O), 0.5 (Σ), 1 (λ) or 2 (B). BSA at 2 mg/ml was used as a non specific protein control (♦).

As to `O=C(O)c1cn(C2CC2)c2cc(N3CCNCC3)c(F)cc2c1=O` [Ciprofloxacin], the MBC in assay [1] (L. pneumophilia serogroup 10) was in the range of 16 to 30 µg/mL (≈ 48.3 to 90.5 µM); in assay [2], 30 to 60 µg/mL (≈ 90.5 to 181 µM). Besides, the MIC in assay [1] (L. pneumophilia serogroup 10, 35° C.) was 16 µg/mL (≈ 48.3 µM); in assay [2] it was 30 µg/mL (≈ 90.5 µM).

Consider “QGPGRQPDFQRCGQQLRNISPPQRCPSLRQAVQLTHQQQGQVGPQQVRQMYRVASNIPST (cysteines drawn unpaired) [synthetic Flo]”, for which the “IC50 of antibacterial growth response” value in the assay on E.coli ER2566 is recorded as “approximately 100 μg/ml”. Besides, the “specific coagulation activity compared with PHYTOFLOC” value in assay [3] is recorded as “higher”.
